Counter-ions that a name gives are not always drawn.
Target: CRBN-DDB1 (Homo sapiens, UniProt Q96SW2)
Assay: CRBN-DDB1 fluorescence polarization (FP) binding assay
Conditions: displacement of Thalidomide-Alexa Fluor or Pomalidomide-fluorescein probe; 400 nM CRBN-DDB1, 5 nM probe, 0.05% pluronic acid, 60 min room temperature; read-out: FP binding to CRBN_DDB1.3 0.05% PA
Experimental: The measurement of the ability of representative Degrons to bind to CRBN-DDB1 was carried out using an established sensitive and quantitative in vitro fluorescence polarization (FP) based binding assay. (See, I. J. Enyedy et al, J. Med. Chem., 44: […] [2001]). Degrons were dispensed from serially diluted DMSO stock into black 384-well compatible fluorescence polarization plates using an Echo acoustic dispenser. Binding to CRBN-DDB1 was measured by displacement of either a (-)-Thalidomide- Alexa Fluor® or Pomalidomide-fluorescein conjugated probe dye. A 20 μL mixture containing 400 nM CRBN-DDB1 and 5 nM probe dye in 50 mM Hepes, pH 7.4, 200mM NaCl, 1% DMSO and 0.05% pluronic acid-127 acid was added to wells containing Degron and incubated at room temperature for 60 min. Matching control wells excluding CRBN-DDB1 were used to correct for background fluorescence. Plates were read on an Envision plate reader with appropriate FP filter sets. The corrected S (perpendicular) and P (parallel) values were used to calculate fluorescence polarization (FP) with the following equation: FP =1000*(S-G*P)/(S+G*P). The fractional amount of bound probe (FB) to CRBN-DDB1 as a function of Degron concentration was fitted according to Wang; FEBS Letters 360, (1995), 111-114 to obtain fits for parameter offsets and binding constant (KA) of Degron.

CRBN-DDB1, sequence (Q96SW2 whole entry): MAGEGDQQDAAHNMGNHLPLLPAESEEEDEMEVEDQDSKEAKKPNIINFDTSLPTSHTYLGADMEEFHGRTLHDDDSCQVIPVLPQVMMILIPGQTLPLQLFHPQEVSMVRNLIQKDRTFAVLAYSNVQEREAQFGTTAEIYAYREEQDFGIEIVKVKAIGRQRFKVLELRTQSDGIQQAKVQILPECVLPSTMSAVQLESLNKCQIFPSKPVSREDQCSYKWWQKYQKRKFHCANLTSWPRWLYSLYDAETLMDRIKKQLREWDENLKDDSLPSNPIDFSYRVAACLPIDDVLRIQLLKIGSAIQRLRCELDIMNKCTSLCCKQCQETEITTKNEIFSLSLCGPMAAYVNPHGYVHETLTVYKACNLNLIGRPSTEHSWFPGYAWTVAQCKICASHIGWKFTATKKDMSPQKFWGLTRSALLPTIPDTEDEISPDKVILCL
CRBN-DDB1, sequence (Q16531 whole entry partner): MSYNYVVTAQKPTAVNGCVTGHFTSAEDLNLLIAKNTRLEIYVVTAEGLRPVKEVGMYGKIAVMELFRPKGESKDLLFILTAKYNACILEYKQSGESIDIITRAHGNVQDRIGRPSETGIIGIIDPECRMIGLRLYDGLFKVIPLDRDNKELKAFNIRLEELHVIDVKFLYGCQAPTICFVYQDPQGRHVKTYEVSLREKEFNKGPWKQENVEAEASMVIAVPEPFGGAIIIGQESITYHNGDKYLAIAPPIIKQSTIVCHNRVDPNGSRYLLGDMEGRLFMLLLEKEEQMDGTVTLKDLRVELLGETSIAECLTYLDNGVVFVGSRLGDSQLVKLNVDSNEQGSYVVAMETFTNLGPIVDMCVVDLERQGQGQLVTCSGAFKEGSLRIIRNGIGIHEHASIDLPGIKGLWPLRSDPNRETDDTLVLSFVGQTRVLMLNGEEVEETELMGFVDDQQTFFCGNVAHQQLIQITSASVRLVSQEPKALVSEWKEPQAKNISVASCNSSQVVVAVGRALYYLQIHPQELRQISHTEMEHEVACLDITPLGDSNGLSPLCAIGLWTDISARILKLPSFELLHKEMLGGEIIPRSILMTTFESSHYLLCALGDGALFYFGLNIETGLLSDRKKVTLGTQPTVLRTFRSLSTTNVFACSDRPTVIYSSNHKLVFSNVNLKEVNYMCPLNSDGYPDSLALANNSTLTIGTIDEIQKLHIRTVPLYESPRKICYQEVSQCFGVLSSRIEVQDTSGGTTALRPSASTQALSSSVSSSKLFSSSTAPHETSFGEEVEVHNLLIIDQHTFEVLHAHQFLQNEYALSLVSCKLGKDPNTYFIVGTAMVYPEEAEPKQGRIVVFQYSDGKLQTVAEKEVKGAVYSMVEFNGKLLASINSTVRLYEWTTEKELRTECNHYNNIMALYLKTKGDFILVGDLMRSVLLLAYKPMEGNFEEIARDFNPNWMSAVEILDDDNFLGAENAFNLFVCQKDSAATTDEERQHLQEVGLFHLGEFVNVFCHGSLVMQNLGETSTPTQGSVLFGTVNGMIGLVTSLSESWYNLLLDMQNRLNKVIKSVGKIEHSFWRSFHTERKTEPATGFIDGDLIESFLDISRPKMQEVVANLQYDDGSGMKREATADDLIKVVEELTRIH

Compound | Kd [µM]
O=C1CCN(c2ccc(N3CCNCC3)nc2)C(=O)N1 [Compound 1, 1-(6-(Piperazin-1-yl)pyridin-3-yl)dihydropyrimidine-2,4(1H,3H)-dione Hydrochloride] | < 30
Cn1nc(N2CCC(=O)NC2=O)c2ccc(Br)cc21 [Compound 2, 1-(6-Bromo-1-methyl-1H-indazol-3-yl)dihydropyrimidine-2,4(1H,3H)-dione] | < 50
O=C1CCN(c2ccc(C3CCNCC3)c(=O)[nH]2)C(=O)N1 [Compound 5, 1-(6-Oxo-5-(piperidin-4-yl)-1,6-dihydropyridin-2-yl)dihydropyrimidine-2,4(1H,3H)-dione Hydrochloride] | < 100
O=C(O)CCc1ccc(N2CCC(N3CCC(=O)NC3=O)CC2)cc1 [Compound 6, 3-[4-[4-(2,4-dioxohexahydropyrimidin-1-yl)-1-piperidyl]phenyl]propanoic acid] | < 50
O=C1CCN(c2ccc(C3CCNCC3)[nH]c2=O)C(=O)N1 [Compound 7, 1-(2-Oxo-6-(piperidin-4-yl)-1,2-dihydropyridin-3-yl)dihydropyrimidine-2,4(1H,3H)-dione] | < 30
O=C1CCN(c2cnn(C3CCNCC3)c2)C(=O)N1 [Compound 8, 1-[1-(4-piperidyl)pyrazol-4-yl]hexahydropyrimidine-2,4-dione] | < 100
O=C1CCN(c2ccc(N3CCNCC3)cc2)C(=O)N1 [Compound 10, 1-(4-Piperazin-1-yl-phenyl)-dihydro-pyrimidine-2,4-dione hydrochloride] | < 100
O=C1CCN(c2ccc(C3CCNCC3)cc2)C(=O)N1 [Compound 11, 1-[4-(4-piperidyl)phenyl]hexahydropyrimidine-2,4-dione; hydrochloride] | < 100
O=C1CCN(c2cccc(C3CCNCC3)c2)C(=O)N1 [Compound 12, 1-(3-Piperidin-4-yl-phenyl)-dihydro-pyrimidine-2,4-dione hydrochloride] | < 100
O=C1CCN(Cc2ccc(C3CCNCC3)cc2)C(=O)N1 [Compound 14, 1-(4-(Piperidin-4-yl)benzyl)dihydropyrimidine-2,4(1H,311)-dione TFA] | < 30

Source: US12454521B2, “Targeted protein degradation” (C4 Therapeutics, Inc., priority 2018, dated 2025)
